Laboratory results from US20070249639A1, “Use of 9H-Purine-2,6-Diamine Derivatives in the Treatment of Proliferative Diseases and Novel 9H-Purine-2,6-Diamine Derivatives” (priority 2004, published 2007).

Biological target: T1, human topoisomerase II α (Homo sapiens, UniProt P11388)
T1 construct: purchased Professor Neil Osheroff (Vanderbilt University, Nashville, Tenn., USA)
Test: Topoisomerase II ATPase assay (Malachite Green)
Format: biochemical
Details: Percent inhibition @10 μM, Malachite Green assay; read-out: TOPO II inh. (inhibition of the TOPO ATPase activity)
Method: The inhibition of topoisomerase II is measured as follows:
Purified human topoisomerase II α was purchased from Professor Neil Osheroff (Vanderbilt University—Nashville, Tenn., USA).
The pUC18 (Stratagene) plasmid was introduced into Escherichia coil XL-1 (Stratagene) and purified with the HiSpeed Plasmid Purification kit (Qiagen) according to the manufacturer instructions. The purity of the DNA preparations was evaluated spectrophotometrically (OD260/OD280 ratio) and by agarose gel.
Preparation of the Malachite Green Reagent:
Three volumes of 0.045% malachite green (Sigma, catalog no. M-9636) diluted in water are mixed for 20 min at room temperature with one volume of 4.2% ammonium molybdate (Axon Lab AG, catalog no. A-2246) diluted in 4 N HCl. After mixing, Triton X-100 (Merck, catalog no. 1.12298) is added to a final concentration of 0.01%. The solution is filtered at 0.2 μm and stored at room temperature in the dark.
ATP hydrolysis was monitored by measuring the production of inorganic phosphate released during the catalytic cycle of topoisomerase II α with acidic molybdate and malachite green (Lanzetta,et al., An improved assay for nanomole amounts of inorganic phosphate, Anal Biochem 1979;100:95-7). Briefly, human topoisomerase II α is pre-incubated at 37° C. for 10 min in 90 μl reaction buffer (10 mM Tris.HCl pH 7.9, 175 mM KCl, 1 mM EDTA, 2 mM DTT, 5 mM MgCl2, 2.5% glycerol) in the presence of the indicated amount of pUC18 and DMSO in F96 maxisorp Nunclmmuno plates (Nunc). The reaction is initiated by the addition of 10 μl ATP at the indicated concentrations and is carried out for 30 min at 37° C. under constant agitation. The reaction is stopped by the addition of 200 μl molybdate/malachite green solution and the absorbance is immediately measured at 630 nm. The OD630 value is measured in the absence of protein for each ATP concentration (background) is subtracted from the value obtained in the presence of enzyme. A standard curve with inorganic phosphate is used to determine the amount of inorganic phosphate produced during the reaction and to ensure that the measures are in the linear range of the assay. The kinetic parameters of the enzymes are determined from measurements (at least in duplicate) of the initial rates at different ATP concentrations. The data are analyzed with GraFit (Erithacus Software).
The compounds are tested at 10 μM of concentration to determine their inhibition potential given % of inhibition of the TOPO II ATPase activity.
For the determination of the IC50, the procedure is repeated for different concentrations of test compound selected to cover the range of 0% to 100% inhibition and the concentration at which 50% inhibition of topoisomerase II occurs (IC50) for each compound is determined from concentration-inhibition curves in a conventional manner.

T1 sequence (P11388 whole entry): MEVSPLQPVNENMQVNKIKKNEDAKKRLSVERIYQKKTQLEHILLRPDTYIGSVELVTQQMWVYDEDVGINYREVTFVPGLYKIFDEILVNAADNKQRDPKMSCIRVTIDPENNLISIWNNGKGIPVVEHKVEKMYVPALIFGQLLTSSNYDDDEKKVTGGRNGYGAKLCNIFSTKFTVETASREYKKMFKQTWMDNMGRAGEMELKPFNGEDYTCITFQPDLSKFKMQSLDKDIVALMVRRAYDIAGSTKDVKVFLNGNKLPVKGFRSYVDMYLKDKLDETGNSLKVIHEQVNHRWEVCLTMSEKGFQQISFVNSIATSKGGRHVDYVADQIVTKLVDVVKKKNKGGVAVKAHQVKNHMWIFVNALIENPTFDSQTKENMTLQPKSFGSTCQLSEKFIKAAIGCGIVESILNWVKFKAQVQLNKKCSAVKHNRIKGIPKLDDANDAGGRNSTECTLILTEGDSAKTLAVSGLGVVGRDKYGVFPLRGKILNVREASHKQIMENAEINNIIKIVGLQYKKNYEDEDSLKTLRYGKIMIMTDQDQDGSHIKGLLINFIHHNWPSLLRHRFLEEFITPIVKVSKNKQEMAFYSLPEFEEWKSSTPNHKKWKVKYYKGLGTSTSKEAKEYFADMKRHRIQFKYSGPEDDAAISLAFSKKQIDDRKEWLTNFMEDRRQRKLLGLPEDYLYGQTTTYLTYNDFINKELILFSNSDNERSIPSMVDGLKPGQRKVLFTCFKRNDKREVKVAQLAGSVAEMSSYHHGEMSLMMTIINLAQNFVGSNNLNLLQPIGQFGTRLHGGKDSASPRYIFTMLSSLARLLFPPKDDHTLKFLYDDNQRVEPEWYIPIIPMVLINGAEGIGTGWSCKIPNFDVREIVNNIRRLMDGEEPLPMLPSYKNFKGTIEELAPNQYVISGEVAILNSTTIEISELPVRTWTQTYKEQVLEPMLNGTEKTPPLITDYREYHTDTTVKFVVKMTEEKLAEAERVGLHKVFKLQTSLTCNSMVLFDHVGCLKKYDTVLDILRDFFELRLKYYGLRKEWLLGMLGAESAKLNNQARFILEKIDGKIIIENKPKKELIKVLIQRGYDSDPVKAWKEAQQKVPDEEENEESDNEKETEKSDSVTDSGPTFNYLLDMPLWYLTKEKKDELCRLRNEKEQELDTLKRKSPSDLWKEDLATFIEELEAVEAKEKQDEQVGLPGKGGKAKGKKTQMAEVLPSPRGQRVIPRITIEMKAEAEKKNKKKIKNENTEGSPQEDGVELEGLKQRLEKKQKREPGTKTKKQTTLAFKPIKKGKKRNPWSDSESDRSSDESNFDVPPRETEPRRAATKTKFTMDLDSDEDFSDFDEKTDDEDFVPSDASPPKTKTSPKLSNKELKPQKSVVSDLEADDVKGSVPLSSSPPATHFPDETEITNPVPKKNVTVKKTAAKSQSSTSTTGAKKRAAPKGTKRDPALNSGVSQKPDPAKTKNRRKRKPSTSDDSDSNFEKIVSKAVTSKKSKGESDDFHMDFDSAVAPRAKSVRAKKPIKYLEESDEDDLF

Row | Compound | inhibition at 10 µM [%]
1 | c1nc2c(NC3CC4CCC3C4)nc(Nc3ccc4ncsc4c3)nc2[nH]1 (stereo not shown) [Example 6, N*2*-Benzothiazol-6-yl-N*6*-bicyclo[2.2.1]hept-2-yl-9H-purine-2,6-diamine] | 50 to 65
2 | Cc1nc2cc(Nc3nc(NC(C)(C)C)c4nc[nH]c4n3)ccc2s1 [Example 17, N*6*-tert-Butyl-N*2*-(2-methyl-benzothiazol-5-yl)-9H-purine-2,6-diamine] | < 50
3 | c1nc2c(NC3C4CC5CC(C4)CC3C5)nc(Nc3ccc4ncsc4c3)nc2[nH]1 (stereo not shown) [Example 5, N*6*-Adamantan-2-yl-N*2*-benzothiazol-6-yl-9H-purine-2,6-diamine] | 50 to 65
4 | CC(C)c1nc2c(NC(C)(C)C)nc(Nc3ccc4ncsc4c3)nc2[nH]1 [Example 33, N*2*-Benzothiazol-6-yl-N*6*-tert-butyl-8-isopropyl-9H-purine-2,6-diamine] | < 50
5 | Cc1nc2ccc(Nc3nc(NC(C)(C)C)c4nc[nH]c4n3)cc2s1 [Example 19, N*6*-tert-Butyl-N*2*-(2-methyl-benzothiazol-6-yl)-9H-purine-2,6-diamine] | 50 to 65
6 | Cc1cc2cc(Nc3nc(NC(C)(C)C)c4nc[nH]c4n3)ccc2[nH]1 [Example 23, N*6*-tert-Butyl-N*2*-(2-methyl-1H-indol-5-yl)-9H-purine-2,6-diamine] | < 50
7 | Cc1nc2c(NC3CCCCCC3)nc(Nc3ccc4ncsc4c3)nc2[nH]1 [Example 26, N*2*-Benzothiazol-6-yl-N*6*-cycloheptyl-8-methyl-9H-purine-2,6-diamine] | < 50
8 | c1ccc(C(Nc2nc(Nc3ccc4ncccc4c3)nc3[nH]cnc23)c2ccccc2)cc1 [Example 13, N*6*-Benzhydryl-N*2*-quinolin-6-yl-9H-purine-2,6-diamine] | < 50
9 | COc1ccc2cc(Nc3nc(NC(C)(C)C)c4nc[nH]c4n3)ccc2c1 [Example 21, N*6*-tert-Butyl-N*2*-(6-methoxy-naphthalen-2-yl)-9H-purine-2,6-diamine] | ≥ 80
10 | CCc1nc2c(NC(C)C(F)(F)F)nc(Nc3ccc4ncsc4c3)nc2[nH]1 (stereo not shown) [Example 28, N*2*-Benzothiazol-6-yl-8-ethyl-N*6*-(2,2,2-trifluoro-1-methyl-ethyl)-9H-purine-2,6-diamine] | 50 to 65
11 | COc1cccc(Nc2nc(Nc3ccc4ncsc4c3)nc3[nH]cnc23)c1 [Example 8, N*2*-Benzothiazol-6-yl-N*6*-(3-methoxy-phenyl)-9H-purine-2,6-diamine] | < 50
12 | CC(C)(C)Nc1nc(Nc2ccc3[nH]ccc3c2)nc2[nH]cnc12 [Example 24, N*6*-tert-Butyl-N*2*-(1H-indol-5-yl)-9H-purine-2,6-diamine] | < 50
13 | CC(C)(C)Nc1nc(Nc2ccc(-c3nc4ccccc4s3)cc2)nc2[nH]cnc12 [Example 20, N*2*-(4-Benzothiazol-2-yl-phenyl)-N*6*-tert-butyl-9H-purine-2,6-diamine] | 65 to 80
14 | c1cnc2ccc(Nc3nc(Nc4ccc5ncccc5c4)c4nc[nH]c4n3)cc2c1 [Example 10, N*2*,N*6*-Di-quinolin-6-yl-9H-purine-2,6-diamine] | < 50
15 | OC1CCC(Nc2nc(Nc3ccc4ncsc4c3)nc3[nH]cnc23)CC1 (stereo not shown) [Example 9, 4-[2-(Benzothiazol-6-ylamino)-9H-purin-6-ylamino]-cyclohexanol] | < 50

The next lines start with the values.

Row | inhibition at 10 µM [%] | Compound
16 | 50 to 65 | CC(C)(C)Nc1nc(Nc2ccc3ccccc3c2)nc2[nH]c(Br)nc12 [Example 69, 8-Bromo-N*6*-tert-butyl-N*2*-naphthalen-2-yl-9H-purine-2,6-diamine]
17 | 65 to 80 | CC(C)(C)Nc1nc(Nc2ccc3ncsc3c2)nc2[nH]c(C3CC3)nc12 [Example 41, N*2*-Benzothiazol-6-yl-N*6*-tert-butyl-8-cyclopropyl-9H-purine-2,6-diamine]
18 | < 50 | CC(C)(Cc1ccc(F)cc1)Nc1nc(Nc2ccc3ncsc3c2)nc2[nH]cnc12 [Example 55, N*2*-Benzothiazol-6-yl-N*6*-[2-(4-fluoro-phenyl)-1,1-dimethyl-ethyl]-9H-purine-2,6-diamine]
19 | < 50 | CC(C)(Cc1ccc(F)cc1)Nc1nc(Nc2ccc3ncccc3c2)nc2[nH]cnc12 [Example 56, N*6*-[2-(4-Fluoro-phenyl)-1,1-dimethyl-ethyl]-N*2*-quinolin-6-yl-9H-purine-2,6-diamine]
20 | < 50 | CC(C)(C)Nc1nc(Nc2ccc3nsnc3c2)nc2[nH]cnc12 [Example 47, N*2*-Benzo[1,2,5]thiadiazol-5-yl-N*6*-tert-butyl-9H-purine-2,6-diamine]
21 | < 50 | CC(C)(C)Nc1nc(Nc2ccc3ncsc3c2)nc2[nH]c(C3CCCC3)nc12 [Example 34, N*2*-Benzothiazol-6-yl-N*6*-tert-butyl-8-cyclopentyl-9H-purine-2,6-diamine]
22 | < 50 | C=Cc1nc2c(NC(C)(C)C)nc(Nc3ccc4ccccc4c3)nc2[nH]1 [Example 70, N*6*-tert-Butyl-N*2*-naphthalen-2-yl-8-vinyl-9H-purine-2,6-diamine]
23 | < 50 | c1cnc2ccc(Nc3nc(NC4CCCCCC4)c4nc[nH]c4n3)cc2c1 [Example 67, N*6*-Cycloheptyl-N*2*-quinolin-6-yl-9H-purine-2,6-diamine]
24 | < 50 | CC(C)(Cc1ccc(F)cc1)Nc1nc(Nc2ccc3nsnc3c2)nc2[nH]cnc12 [Example 57, N*2*-Benzo[1,2,5]thiadiazol-5-yl-N*6*-[2-(4-fluoro-phenyl)-1,1-dimethyl-ethyl]-9H-purine-2,6-diamine]
25 | < 50 | Cc1nc2c(NC(C)(C)C)nc(Nc3ccc4ccccc4c3)nc2[nH]1 [Example 72, N*6*-tert-Butyl-8-methyl-N*2*-naphthalen-2-yl-9H-purine-2,6-diamine]
26 | < 50 | CCc1nc2c(NC(C)(C)C)nc(Nc3ccc4ccccc4c3)nc2[nH]1 [Example 73, N*6*-tert-Butyl-8-ethyl-N*2*-naphthalen-2-yl-9H-purine-2,6-diamine]
27 | 50 to 65 | CC(C)(C)Nc1nc(Nc2ccc3ncsc3c2)nc2[nH]cnc12 [Example 65, N*2*-Benzothiazol-6-yl-N*6*-tert-butyl-9H-purine-2,6-diamine]
28 | < 50 | CCC(C)(C)Nc1nc(Nc2ccc3nc(C)sc3c2)nc2[nH]cnc12 [Example 54, N*6*-(1,1-Dimethyl-propyl)-N*2*-(2-methyl-benzothiazol-6-yl)-9H-purine-2,6-diamine]
29 | < 50 | c1nc2c(NC3CCCCCC3)nc(Nc3ccc4nsnc4c3)nc2[nH]1 [Example 49, N*2*-Benzo[1,2,5]thiadiazol-5-yl-N*6*-cycloheptyl-9H-purine-2,6-diamine]
30 | 50 to 65 | CCC(C)(C)Nc1nc(Nc2ccc3ncsc3c2)nc2[nH]cnc12 [Example 51, N*2*-Benzothiazol-6-yl-N*6*-(1,1-dimethyl-propyl)-9H-purine-2,6-diamine]
31 | 0 | C=C(C=Cc1nc(OCCN2CCOCC2)sc1C)Nc1nc(NC(C)(C)C)c2nc(C3CCCC3)[nH]c2n1 [Example 40, N*6*-tert-Butyl-8-cyclopentyl-N*2*-{1-methylene-3-[5-methyl-2-(2-morpholin-4-yl-ethoxy)-thiazol-4-yl]-allyl}-9H-purine-2,6-diamine]
